Among the data in PubChem BioAssay AID330 (DTP/NCI, 2004) are T/C values, retold here.

“And” between values parts separate entries of the source, which are not always exact repeats. Equal entries are not always repeated. Inconclusive results and toxic doses are left out.

The test system of this assay is P388 leukemia ip, CD2F1 mice, survival T/C. Description: NCI In Vivo Anticancer Drug Screen. Data for tumor model P388 Leukemia (intraperitoneal) in CD2F1 (CDF1) mice. Particulars: endpoint: median survival time, higher = longer survival. The essentials: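 Mice carrying the transplanted tumor received test compound or vehicle. Survival was recorded in each group, and the value is the treated-group measurement divided by that of the vehicle-treated control group.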

Setting [1] is: dose: 50.0 mg/kg/injection, schedule: Q01DX005 (ip), vehicle: Klucel (hydroxypropylcellulose) (HPC).
Setting [2] is: dose: 100.0 mg/kg/injection, schedule: Q01DX005 (ip), vehicle: Klucel (hydroxypropylcellulose) (HPC).
[3] abbreviates: dose: 60.0 mg/kg/injection, schedule: Q01DX005 (ip), vehicle: saline with Tween-80.
Where [4] appears, read: dose: 120.0 mg/kg/injection, schedule: Q01DX005 (ip), vehicle: saline with Tween-80.
Setting [5] is: dose: 240.0 mg/kg/injection, schedule: Q01DX005 (ip), vehicle: saline with Tween-80.
[6] abbreviates: dose: 200.0 mg/kg/injection, schedule: Q01DX005 (ip), vehicle: Klucel (hydroxypropylcellulose) (HPC).
The mark [7] stands for this setting: dose: 50.0 mg/kg/injection, schedule: Q01DX009 (ip), vehicle: Klucel (hydroxypropylcellulose) (HPC).
[8] abbreviates: dose: 100.0 mg/kg/injection, schedule: Q01DX009 (ip), vehicle: Klucel (hydroxypropylcellulose) (HPC).
The mark [9] stands for this setting: dose: 200.0 mg/kg/injection, schedule: Q01DX009 (ip), vehicle: Klucel (hydroxypropylcellulose) (HPC).
The mark [10] stands for this setting: dose: 50.0 mg/kg/injection, schedule: Q01DX009 (ip), vehicle: saline.
The mark [11] stands for this setting: dose: 100.0 mg/kg/injection, schedule: Q01DX009 (ip), vehicle: saline.
Setting [12] is: dose: 200.0 mg/kg/injection, schedule: Q01DX009 (ip), vehicle: saline.
Where [13] appears, read: dose: 100.0 mg/kg/injection, schedule: Q01DX009 (ip), vehicle: saline with Tween-80.
Setting [14] is: dose: 100.0 mg/kg/injection, schedule: Q04DX003 (ip), vehicle: saline with Tween-80.
Where [15] appears, read: dose: 200.0 mg/kg/injection, schedule: Q04DX003 (ip), vehicle: saline with Tween-80.
Where [16] appears, read: dose: 400.0 mg/kg/injection, schedule: Q04DX003 (ip), vehicle: saline with Tween-80.

Consider `[Cl][Pt][Cl].[NH-]C(CO)C(=O)O` (configuration not stated), for which the T/C by setting is: (dose: 6.25 mg/kg/injection, schedule: Q01DX005 (ip), vehicle: water) 119 % of control; (dose: 12.5 mg/kg/injection, schedule: Q01DX005 (ip), vehicle: water) 113 % of control; (dose: 25.0 mg/kg/injection, schedule: Q01DX005 (ip), vehicle: water) 122 % of control; (dose: 50.0 mg/kg/injection, schedule: Q01DX005 (ip), vehicle: water) 153 % of control.

On to `N#CC1CCCC(C#N)N1CN1C(C#N)CCCC1C#N` (configuration not stated), for which the T/C is 97 % of control under setting [1] and 88 % of control under setting [2].

Turning to `Oc1cc2c(cc1C(Nc1ncccn1)c1ccc3c(c1)OCO3)OCO2` (configuration not stated), the T/C runs as follows: under setting [3], 102 % of control; under setting [4], 100 % of control; under setting [5], 95 % of control.

Take `NNC(=O)C(=O)Nc1nccs1`: the T/C reads like this: under setting [3], 94 % of control; under setting [4], 95 % of control.

`[CH3][Sn]([CH3])([n]1nnc2ccccc21)[n]1nnc2ccccc21`: the T/C is, setting by setting: (dose: 25.0 mg/kg/injection, schedule: Q01DX005 (ip), vehicle: Klucel (hydroxypropylcellulose) (HPC)) 114 % of control; under setting [1], 115 % of control and 121 % of control; under setting [2], 112 % of control and 115 % of control; under setting [6], 112 % of control.

In the case of `CC([NH-])CC(C)[NH-].[I][Pt+2][I]` (configuration not stated), the T/C was 169 % of control and 150 % of control (dose: 12.5 mg/kg/injection, schedule: Q04DX002 (ip), vehicle: saline with Tween-80); 163 % of control and 157 % of control (dose: 25.0 mg/kg/injection, schedule: Q04DX002 (ip), vehicle: saline with Tween-80).

As to `COc1ccc(C2=[N+]([O-])C(C)(C)C(c3ccccc3)C2)cc1` (configuration not stated), the T/C runs as follows: under setting [7], 97 % of control; under setting [8], 101 % of control; under setting [9], 100 % of control.

Consider `CCOC(=O)CSc1ccccc1`, for which the T/C is, setting by setting: under setting [10], 100 % of control; under setting [11], 98 % of control; under setting [12], 100 % of control; (dose: 400.0 mg/kg/injection, schedule: Q01DX009 (ip), vehicle: saline) 100 % of control.

Turning to `COC(=O)C1Cc2[nH]cnc2C(c2c(CO)cnc(C)c2O)N1` (configuration not stated), the T/C runs as follows: under setting [1], 104 % of control; under setting [2], 104 % of control.

For the compound `CC(C)COC(=O)N1c2ccccc2C=CC1OCC(C)C` (configuration not stated), the T/C runs as follows: (dose: 1.56 mg/kg/injection, schedule: Q01DX005 (ip), vehicle: Klucel (hydroxypropylcellulose) (HPC)) 104 % of control; (dose: 3.12 mg/kg/injection, schedule: Q01DX005 (ip), vehicle: Klucel (hydroxypropylcellulose) (HPC)) 100 % of control; (dose: 6.25 mg/kg/injection, schedule: Q01DX005 (ip), vehicle: Klucel (hydroxypropylcellulose) (HPC)) 104 % of control; (dose: 6.25 mg/kg/injection, schedule: Q01DX005 (ip), vehicle: saline with Tween-80) 109 % of control; (dose: 12.5 mg/kg/injection, schedule: Q01DX005 (ip), vehicle: saline with Tween-80) 112 % of control.

Consider `CCn1c2c(c3ccccc3c1=O)C(=O)c1ccccc1-2`, for which the T/C runs as follows: (dose: 50.0 mg/kg/injection, schedule: Q01DX005 (ip), vehicle: saline with Tween-80) 103 % of control; (dose: 100.0 mg/kg/injection, schedule: Q01DX005 (ip), vehicle: saline with Tween-80) 103 % of control; (dose: 200.0 mg/kg/injection, schedule: Q01DX005 (ip), vehicle: saline with Tween-80) 94 % of control.

For the compound `Cc1cccc(-c2cc(Cl)c3cc(S(=O)(=O)F)ccc3n2)c1`, the T/C reads like this: under setting [13], 100 % of control; under setting [14], 100 % of control; (dose: 200.0 mg/kg/injection, schedule: Q01DX009 (ip), vehicle: saline with Tween-80) 108 % of control; under setting [15], 100 % of control; (dose: 400.0 mg/kg/injection, schedule: Q01DX009 (ip), vehicle: saline with Tween-80) 100 % of control; under setting [16], 109 % of control.

Consider `CC(CN(C)C)OC(=O)C1(c2ccccc2)CCOc2ccccc21` (configuration not stated), for which the T/C is, setting by setting: under setting [3], 108 % of control; under setting [4], 108 % of control; under setting [5], 109 % of control.

For `O=C(O)c1cc(O)ccc1O`, the T/C runs as follows: (dose: 25.0 mg/kg/injection, schedule: Q01DX009 (ip), vehicle: saline) 104 % of control; under setting [10], 90 % of control; under setting [11], 97 % of control; under setting [12], 94 % of control.

For the compound `NC(=O)CC(N)C(=O)O.[Cl-].[Cl-].[Cl-].[Cl-].[Pt+2]` (configuration not stated), the T/C was 99 % of control (dose: 1.56 mg/kg/injection, schedule: Q01DX009 (ip), vehicle: water); 100 % of control (dose: 3.13 mg/kg/injection, schedule: Q01DX009 (ip), vehicle: water); 100 % of control (dose: 6.25 mg/kg/injection, schedule: Q01DX009 (ip), vehicle: water).

With `CCC(=O)Cc1nc2n(c1O)C(=N)N=N2`, the T/C is 98 % of control (dose: 60.0 mg/kg/injection, schedule: Q01DX005 (ip), vehicle: saline); 98 % of control (dose: 120.0 mg/kg/injection, schedule: Q01DX005 (ip), vehicle: saline); 98 % of control (dose: 240.0 mg/kg/injection, schedule: Q01DX005 (ip), vehicle: saline).

Turning to `COc1ccc(OC)c(NC(=O)Nc2ncccn2)c1`, the T/C runs as follows: under setting [7], 106 % of control; under setting [8], 100 % of control; under setting [9], 103 % of control.

On to `O=[N+]([O-])c1cnc2ccccn12`, for which the T/C by setting is: (dose: 12.5 mg/kg/injection, schedule: Q01DX009 (ip), vehicle: saline with Tween-80) 100 % of control; (dose: 25.0 mg/kg/injection, schedule: Q01DX009 (ip), vehicle: saline with Tween-80) 93 % of control; (dose: 50.0 mg/kg/injection, schedule: Q01DX009 (ip), vehicle: saline with Tween-80) 94 % of control; under setting [13], 95 % of control.

For `CS(=O)(=O)c1cc([N+](=O)[O-])cc([N+](=O)[O-])c1Cl`, the T/C was 109 % of control (dose: 2.5 mg/kg/injection, schedule: Q01DX009 (ip), vehicle: saline with Tween-80) and 90 % of control (dose: 5.0 mg/kg/injection, schedule: Q01DX009 (ip), vehicle: saline with Tween-80).

Regarding `O=C(Nc1ccccc1)SCCSC(=S)N1CCCC1`, the T/C runs as follows: under setting [1], 103 % of control; under setting [2], 105 % of control; under setting [6], 105 % of control.

For `C[n+]1c2ccccc2nc2c(N)cc(N)cc21`, the T/C by setting is: (dose: 31.3 mg/kg/injection, schedule: Q04DX003 (ip), vehicle: saline sonified) 104 % of control; (dose: 83.0 mg/kg/injection, schedule: Q04DX003 (ip), vehicle: saline with Tween-80) 113 % of control; (dose: 125.0 mg/kg/injection, schedule: Q04DX003 (ip), vehicle: saline with Tween-80) 122 % of control; (dose: 188.0 mg/kg/injection, schedule: Q04DX003 (ip), vehicle: saline with Tween-80) 100 % of control.

As for `Cc1c(Cl)cccc1NS(=O)(=O)c1ccccc1`, the T/C by setting is: under setting [14], 104 % of control; under setting [15], 104 % of control; under setting [16], 90 % of control.
